# From patent US11130769B2 (Prelude Therapeutics Incorporated, priority 2018, dated 2021)
# Where two headings read alike, the source gives them in different places.
# How the values were obtained:
# MCL-1 = MCL-1 (Homo sapiens (Human), UniProt Q07820); test: Cell free Mcl-1:Bim affinity assay (fluorescence polarization competition); format: binding; conditions: 15 nM MCL-1, 5 nM FITC-Bim, 1 hour at room temperature, read-out: BIM_Ki
# How it was run: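 Compounds competed with FITC-labelled Bim peptide (5 nM) for MCL-1 (15 nM) in HEPES/NaCl buffer with 1% DMSO, 1 h at room temperature. Fluorescence polarization (535 nm emission) gave % inhibition versus DMSO and positive controls; IC50 from 10-point curves, converted to Ki by the Nikolovska-Coleska equation.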
# H929 cells = test: Cell viability assay (H929 10 FBS); format: cell-based; conditions: Homo sapiens, NCI-H929, 24 hours, read-out: H929_10FBS IC50
# How it was run: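 H929 cells, 4000/well, in RPMI 1640 with 10% FBS, sodium pyruvate, HEPES and glucose were exposed to compound 24 h at 37 °C. Viability read as luminescence after 30-60 min at RT with CellTiter-Glo or ATPlite 1 Step.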
# Sequence of MCL-1 (Q07820 whole entry): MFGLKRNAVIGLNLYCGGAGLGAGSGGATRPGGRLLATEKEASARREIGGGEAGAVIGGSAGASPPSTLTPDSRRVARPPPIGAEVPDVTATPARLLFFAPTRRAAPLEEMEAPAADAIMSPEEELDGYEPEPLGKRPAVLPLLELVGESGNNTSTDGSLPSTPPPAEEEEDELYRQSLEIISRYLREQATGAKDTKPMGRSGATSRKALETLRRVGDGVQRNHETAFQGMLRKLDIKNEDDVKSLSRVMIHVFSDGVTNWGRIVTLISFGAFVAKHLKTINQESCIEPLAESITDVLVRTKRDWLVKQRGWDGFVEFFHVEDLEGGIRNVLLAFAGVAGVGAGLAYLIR
Compound,Ki (MCL-1; class symbols) [nM],IC50 (H929 cells) [nM],Ki (MCL-1; numeric values) [nM]
"CN(C(=O)O[C@H]1/C=C/COC(C)(C)C(=O)NS(=O)(=O)c2ccc3c(c2)N(C[C@@H]2CC[C@H]21)C[C@@]1(CCOc2cc(Cl)ccc21)CO3)C1CCOCC1 [Example 304, [(3R,6R,7S,8E,22S)-7′-Chloro-12,12-dimethyl-13,15,15-trioxo-spiro[11,20-dioxa-15-thia-1,14-diazatetracyclo[14.7.2.03,6.019,24]pentacosa-8,16,18,24-tetraene-22,4′-chromane]-7-yl] N-methyl-N-tetrahydropyran-4-yl-carbamate]",< 1,< 500,–
"CN1CC[C@H](NC(=O)O[C@H]2/C=C/COC(C)(C)C(=O)NS(=O)(=O)c3ccc4c(c3)N(C[C@@H]3CC[C@H]32)C[C@@]2(CCCc3cc(Cl)ccc32)CO4)C1 [Example 151, [(3R,6R,7S,8E,22S)-6′-Chloro-12,12-dimethyl-13,15,15-triox-spiro[11,20-dioxa-15-thia-1,14-diazatetracyclo[14.7.2.03,6.019,24]pentacosa-8,16,18,24-tetraene-22,1′-tetralin]-7-yl] N-[(3S)-1-methylpyrrolidin-3-yl]carbamate]",< 1,< 500,–
"CC(C)(C)OC(=O)N1CCC(C(=O)NS(=O)(=O)c2ccc3c(c2)N(CC2CCC2)CC2(CCCc4cc(Cl)ccc42)CO3)CC1 (stereo not shown) [Example 21, tert-Butyl 4-[[6′-chloro-5-(cyclobutylmethyl)spiro[2,4-dihydro-1,5-benzoxazepine-3,1′-tetralin]-7-yl]sulfonylcarbamoyl]piperidine-1-carboxylate]",–,> 1000,53.3
"CC(=O)NS(=O)(=O)c1ccc2c(c1)N(Cc1cnn(C)c1)CC1(CCCc3cc(Cl)ccc31)CO2 (stereo not shown) [Example 9, N-[6′-Chloro-5-[(1-methylpyrazol-4-yl)methyl]spiro[2,4-dihydro-1,5-benzoxazepine-3,1′-tetralin]-7-yl]sulfonylacetamide]",–,> 1000,1640
"CC1(C)OC/C=C/[C@H](OC(=O)NCC(F)F)[C@@H]2CC[C@H]2CN2C[C@@]3(CCCc4cc(Cl)ccc43)COc3ccc(cc32)S(=O)(=O)NC1=O [Example 179, [(3R,6R,7S,8E,22S)-6′-Chloro-12,12-dimethyl-13,15,15-trioxo-spiro[11,20-dioxa-15-thia-1,14-diazatetracyclo[14.7.2.03,6.019,24]pentacosa-8,16,18,24-tetraene-22,1′-tetralin]-7-yl] N-(2,2-difluoroethyl)carbamate]",< 1,< 500,–
"CC(C)CNC(=O)O[C@H]1/C=C/COC(C)(C)C(=O)NS(=O)(=O)c2ccc3c(c2)N(C[C@@H]2CC[C@H]21)C[C@@]1(CCCc2cc(Cl)ccc21)CO3 [Example 182, [(3R,6R,7S,8E,22S)-6′-Chloro-12,12-dimethyl-13,15,15-trioxo-spiro[11,20-dioxa-15-thia-1,14-diazatetracyclo[14.7.2.03,6.019,24]pentacosa-8,16,18,24-tetraene-22,1′-tetralin]-7-yl] N-isobutylcarbamate]",< 1,< 500,–
"CC(C)NC(=O)O[C@H]1/C=C/COC(C)(C)C(=O)NS(=O)(=O)c2ccc3c(c2)N(C[C@@H]2CC[C@H]21)C[C@@]1(CCCc2cc(Cl)ccc21)CO3 [Example 181, [(3R,6R,7S,8E,22S)-6′-Chloro-12,12-dimethyl-13,15,15-trioxo-spiro[11,20-dioxa-15-thia-1,14-diazatetracyclo[14.7.2.03,6.019,24]pentacosa-8,16,18,24-tetraene-22,1′-tetralin]-7-yl] N-isopropylcarbamate]",< 1,< 500,–
"CC1(C)OC/C=C\[C@H](O)[C@@H]2CC[C@H]2CN2C[C@@]3(CCCc4cc(Cl)ccc43)COc3ccc(cc32)S(=O)(=O)NC1=O [Example 33, (3R,6R,7S,8Z,22S)-6′-Chloro-7-hydroxy-12,12-dimethyl-15,15-dioxo-spiro[11,20-dioxa-15-thia-1,14-diazatetracyclo[14.7.2.03,6.019,24]pentacosa-8,16,18,24-tetraene-22,1′-tetralin]-13-one]",< 1,< 500,–
